From the CheMixHub viscosity set
± gives the uncertainty stated by the source.

Test: xn = mol fraction of the nth substance listed

CCCCCCO + COC(=O)OC
Conditions	viscosity [mPa·s]
293.15 K, 100 kPa, x2 = 0.1003	3.53 ± 0.64
293.15 K, 100 kPa, x2 = 0.1998	2.47 ± 0.44
293.15 K, 100 kPa, x2 = 0.3011	1.87 ± 0.34
293.15 K, 100 kPa, x2 = 0.4001	1.51 ± 0.27
293.15 K, 100 kPa, x2 = 0.5007	1.24 ± 0.22
293.15 K, 100 kPa, x2 = 0.5987	0.95 ± 0.17
293.15 K, 100 kPa, x2 = 0.7003	0.77 ± 0.14
293.15 K, 100 kPa, x2 = 0.8013	0.71 ± 0.13
293.15 K, 100 kPa, x2 = 0.9002	0.61 ± 0.11
293.15 K, 101 kPa, x2 = 0.04349	4.578
293.15 K, 101 kPa, x2 = 0.1014	3.717
293.15 K, 101 kPa, x2 = 0.1936	2.761
293.15 K, 101 kPa, x2 = 0.3033	2.046
293.15 K, 101 kPa, x2 = 0.4078	1.6
293.15 K, 101 kPa, x2 = 0.5026	1.302
293.15 K, 101 kPa, x2 = 0.602	1.06
293.15 K, 101 kPa, x2 = 0.699	0.883
293.15 K, 101 kPa, x2 = 0.8055	0.756
293.15 K, 101 kPa, x2 = 0.9079	0.685
293.15 K, 101 kPa, x2 = 0.9562	0.648
298.15 K, 100 kPa, x2 = 0.1003	3.06 ± 0.55
298.15 K, 100 kPa, x2 = 0.1998	2.17 ± 0.39
298.15 K, 100 kPa, x2 = 0.3011	1.66 ± 0.3
298.15 K, 100 kPa, x2 = 0.4001	1.34 ± 0.24
298.15 K, 100 kPa, x2 = 0.5007	1.12 ± 0.2
298.15 K, 100 kPa, x2 = 0.5987	0.92 ± 0.17
298.15 K, 100 kPa, x2 = 0.7003	0.77 ± 0.14
298.15 K, 100 kPa, x2 = 0.8013	0.66 ± 0.12
298.15 K, 100 kPa, x2 = 0.9002	0.57 ± 0.1
303.15 K, 100 kPa, x2 = 0.1003	2.67 ± 0.48
303.15 K, 100 kPa, x2 = 0.1998	1.93 ± 0.35
303.15 K, 100 kPa, x2 = 0.3011	1.48 ± 0.27
303.15 K, 100 kPa, x2 = 0.4001	1.23 ± 0.22
303.15 K, 100 kPa, x2 = 0.5007	1.02 ± 0.18
303.15 K, 100 kPa, x2 = 0.5987	0.84 ± 0.15
303.15 K, 100 kPa, x2 = 0.7003	0.72 ± 0.13
303.15 K, 100 kPa, x2 = 0.8013	0.61 ± 0.11
303.15 K, 100 kPa, x2 = 0.9002	0.54 ± 0.1
303.15 K, 101 kPa, x2 = 0.04993	3.355
303.15 K, 101 kPa, x2 = 0.1121	2.759
303.15 K, 101 kPa, x2 = 0.1985	2.135
303.15 K, 101 kPa, x2 = 0.3013	1.623
303.15 K, 101 kPa, x2 = 0.4548	1.153
303.15 K, 101 kPa, x2 = 0.4939	1.069
303.15 K, 101 kPa, x2 = 0.5585	0.951
303.15 K, 101 kPa, x2 = 0.7038	0.747
303.15 K, 101 kPa, x2 = 0.7977	0.649
303.15 K, 101 kPa, x2 = 0.9079	0.571
303.15 K, 101 kPa, x2 = 0.9534	0.548
308.15 K, 100 kPa, x2 = 0.1003	2.35 ± 0.42
308.15 K, 100 kPa, x2 = 0.1998	1.71 ± 0.31
308.15 K, 100 kPa, x2 = 0.3011	1.33 ± 0.24
308.15 K, 100 kPa, x2 = 0.4001	1.07 ± 0.19
308.15 K, 100 kPa, x2 = 0.5007	0.93 ± 0.17
308.15 K, 100 kPa, x2 = 0.5987	0.78 ± 0.14
308.15 K, 100 kPa, x2 = 0.7003	0.67 ± 0.12
308.15 K, 100 kPa, x2 = 0.8013	0.57 ± 0.1
308.15 K, 100 kPa, x2 = 0.9002	0.53 ± 0.1
313.15 K, 100 kPa, x2 = 0.1003	2.07 ± 0.37
313.15 K, 100 kPa, x2 = 0.1998	1.53 ± 0.28
313.15 K, 100 kPa, x2 = 0.3011	1.21 ± 0.22
313.15 K, 100 kPa, x2 = 0.4001	0.99 ± 0.18
313.15 K, 100 kPa, x2 = 0.5007	0.86 ± 0.16
313.15 K, 100 kPa, x2 = 0.5987	0.72 ± 0.13
313.15 K, 100 kPa, x2 = 0.7003	0.62 ± 0.11
313.15 K, 100 kPa, x2 = 0.8013	0.53 ± 0.1
313.15 K, 100 kPa, x2 = 0.9002	0.48 ± 0.09
313.15 K, 101 kPa, x2 = 0.05023	2.521
313.15 K, 101 kPa, x2 = 0.1223	2.039
313.15 K, 101 kPa, x2 = 0.2131	1.599
313.15 K, 101 kPa, x2 = 0.3291	1.223
313.15 K, 101 kPa, x2 = 0.4005	1.061
313.15 K, 101 kPa, x2 = 0.4874	0.911
313.15 K, 101 kPa, x2 = 0.5997	0.76
313.15 K, 101 kPa, x2 = 0.6524	0.713
313.15 K, 101 kPa, x2 = 0.7994	0.572
313.15 K, 101 kPa, x2 = 0.9089	0.514
313.15 K, 101 kPa, x2 = 0.9495	0.501
318.15 K, 100 kPa, x2 = 0.1003	1.83 ± 0.33
318.15 K, 100 kPa, x2 = 0.1998	1.37 ± 0.25
318.15 K, 100 kPa, x2 = 0.3011	1.09 ± 0.2
318.15 K, 100 kPa, x2 = 0.4001	0.91 ± 0.16
318.15 K, 100 kPa, x2 = 0.5007	0.79 ± 0.14
318.15 K, 100 kPa, x2 = 0.5987	0.67 ± 0.12
318.15 K, 100 kPa, x2 = 0.7003	0.58 ± 0.1
318.15 K, 100 kPa, x2 = 0.8013	0.51 ± 0.09
318.15 K, 100 kPa, x2 = 0.9002	0.46 ± 0.08
323.15 K, 100 kPa, x2 = 0.1003	1.63 ± 0.29
323.15 K, 100 kPa, x2 = 0.1998	1.24 ± 0.22
323.15 K, 100 kPa, x2 = 0.3011	0.99 ± 0.18
323.15 K, 100 kPa, x2 = 0.4001	0.84 ± 0.15
323.15 K, 100 kPa, x2 = 0.5007	0.73 ± 0.13
323.15 K, 100 kPa, x2 = 0.5987	0.63 ± 0.11
323.15 K, 100 kPa, x2 = 0.7003	0.55 ± 0.1
323.15 K, 100 kPa, x2 = 0.8013	0.48 ± 0.09
323.15 K, 100 kPa, x2 = 0.9002	0.43 ± 0.08
